Reference: article PMC7534336, “New classes of potent heparanase inhibitors from ligand-based virtual screening” (Journal of Enzyme Inhibition and Medicinal Chemistry, 2020)
Values joined by “and” are separate entries in the source; they are usually repeats but may differ in a detail not shown here. Equal entries are not always repeated. Where two headings read alike, the source gives them in different places.

Biological target: human GS3 heparanase (Homo sapiens, UniProt Q9Y251)
Assay: fondaparinux assay of heparanase enzymatic activity (WST-1 colorimetric)
Format: biochemical
Conditions: for % inhib @2.5 M ± SD: fixed concentration 2.5 µM (2.5 M [sic]); for % inhib @25 M ± SD: fixed concentration 25 µM (25 M [sic])
Description: To determine the activity of the heparanase inhibitors, a homogeneous assay based on the cleavage of the synthetic heparin oligosaccharide fondaparinux (Arixtra; Aspen) was used. The assay measures colorimetrically the appearance of the disaccharide product of heparanase-catalysed fondaparinux cleavage using the tetrazolium salt WST-1. The assay was essentially performed as described[39] with minor modifications. Briefly, Nunc 96-well (Thermo Fisher Scientific) plates were pre-treated with a solution of 4% BSA (bovine serum albumin, Sigma-Aldrich) in phosphate-buffered saline containing 0.05% Tween 20 (PBST), for 2 h at 37 °C, and then washed three times with PBST. […] The IC50 value for each compound was calculated by GraphPad software. Finally, the measurements were corrected by subtracting both the reagent background and the inner absorbance value of test compound.
Supporting Table S1 reports the structures of the fifty-five compounds purchased and tested, with information, for each compound, on the database from which it was retrieved, the reference inhibitor used to retrieve it and the similarity value with the reference inhibitor.

[1] = fondaparinux assay on human GS3 heparanase, mean of triplicates
[2] = fondaparinux assay on human GS3 heparanase, mean of triplicates, read-out: IC50 (µM) ± SD, heparanase inhibitory activity
[3] = Table S1, fondaparinux assay on GS3 heparanase, read-out: IC50 (M) ± SD

Sequence of human GS3 heparanase (Q9Y251 other isoform, or with tags, fused parts or gaps): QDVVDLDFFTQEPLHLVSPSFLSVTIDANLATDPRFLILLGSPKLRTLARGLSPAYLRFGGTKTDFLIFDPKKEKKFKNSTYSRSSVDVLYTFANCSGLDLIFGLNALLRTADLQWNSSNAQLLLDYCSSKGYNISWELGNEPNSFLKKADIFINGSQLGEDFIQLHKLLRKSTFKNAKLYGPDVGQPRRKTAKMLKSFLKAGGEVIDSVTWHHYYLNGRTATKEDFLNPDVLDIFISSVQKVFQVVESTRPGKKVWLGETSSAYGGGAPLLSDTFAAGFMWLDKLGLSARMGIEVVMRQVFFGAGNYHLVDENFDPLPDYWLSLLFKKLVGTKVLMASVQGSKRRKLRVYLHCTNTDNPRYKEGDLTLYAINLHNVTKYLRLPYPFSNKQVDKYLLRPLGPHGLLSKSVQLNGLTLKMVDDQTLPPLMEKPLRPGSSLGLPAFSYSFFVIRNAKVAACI

| % inhib @2.5 M ± SD (Table S1) | % inhib @25 M ± SD (Table S1) | Structure (SMILES) | other results |
| --- | --- | --- | --- |
|  |  | O=C(O)c1ccc2c(c1)C(=O)N(c1cccc(Oc3cccc(Oc4cccc(N5C(=O)c6ccc(C(=O)O)cc6C5=O)c4)c3)c1)C2=O [Compound 59] | IC50 (µM) ± SD, heparanase inhibitory activity [1]: good inhibitory potency; IC50 [2]: 2.08 ± 0.16 µM |
| 21 ± 1% | 60 ±1% | O=C(Nc1ccccc1Oc1ccc(C(=O)O)c(C(=O)O)c1)c1ccc(Oc2ccc(C(=O)Nc3ccccc3Oc3ccc(C(=O)O)c(C(=O)O)c3)cc2)cc1 [Compound 22] |  |
|  |  | O=C(Nc1cccc(C(=O)c2ccccc2)c1)c1ccc(Oc2ccc(C(=O)Nc3cccc(C(=O)c4ccccc4)c3)cc2)cc1 [Compound 40] | IC50 [3]: > 5 µM |
| 30 ± 3% | 66 ± 5% | O=C(Nc1ccc(Sc2ccc(Oc3ccc(Sc4ccc(NC(=O)c5cccc(F)c5)cc4)cc3)cc2)cc1)c1cccc(F)c1 [Compound 47] |  |
| 54 ± 6% | 76 ± 2% | O=C(Nc1nc(-c2ccc3ccccc3c2)cs1)c1ccc(Oc2ccc(C(=O)Nc3nc(-c4ccc5ccccc5c4)cs3)cc2)cc1 [Compound 41] |  |
| 42 ± 6% | 77 ± 4% | O=C(Nc1ccc(O)cc1C(=O)O)c1ccc(Oc2ccc(C(=O)Nc3ccc(O)cc3C(=O)O)cc2)cc1 [Compound 51] |  |
| 44 ± 1% | 67 ± 4% | O=C(Nc1nc(-c2ccc(F)cc2)cs1)c1ccc(Oc2ccc(C(=O)Nc3nc(-c4ccc(F)cc4)cs3)cc2)cc1 [Compound 43] |  |
|  |  | O=C(Nc1ccc(Br)cc1C(=O)O)c1ccc(Oc2ccc(C(=O)Nc3ccc(Br)cc3C(=O)O)cc2)cc1 [Compound 21] | IC50 [2]: 2.66 ± 0.32 µM |
| 60 ± 21% | 63 ± 16% | O=C(Nc1ccc(-c2nc3ccccc3o2)cc1)c1ccc(Oc2ccc(C(=O)Nc3ccc(-c4nc5ccccc5o4)cc3)cc2)cc1 [Compound 39] |  |
|  |  | O=C(O)COc1ccc(N2C(=O)c3ccc(Oc4ccc5c(c4)C(=O)N(c4ccc(OCC(=O)O)cc4)C5=O)cc3C2=O)cc1 [Compound 37] | IC50 [3]: > 5 µM |
|  |  | CC(C)(c1ccc(Oc2ccc3c(c2)C(=O)N(c2cccc(C(=O)O)c2)C3=O)cc1)c1ccc(Oc2ccc3c(c2)C(=O)N(c2cccc(C(=O)O)c2)C3=O)cc1 [Compound 48] | IC50 (µM) ± SD, heparanase inhibitory activity [1]: significant inhibitory potencies; IC50 [2]: 0.91 ± 0.1 µM |
| 11 ± 4% | 1 ± 1% | COc1cc(C(=O)Nc2ccc(-c3nc4cc(NC(=O)c5cc(OC)c(OC)c(OC)c5)ccc4[nH]3)cc2)cc(OC)c1OC [Compound 30] |  |
| 45 ± 7% | 54 ± 8% | O=C(O)c1cc(NC(=O)c2ccc(S(=O)(=O)c3ccc(C(=O)Nc4cc(C(=O)O)cc(C(=O)O)c4)cc3)cc2)cc(C(=O)O)c1 [Compound 52] |  |
| 22 ± 7% | 72 ± 1% | O=C(O)c1cccc(NC(=O)c2ccc(S(=O)(=O)c3ccc(C(=O)Nc4cccc(C(=O)O)c4)cc3)cc2)c1 [Compound 54] |  |
|  |  | O=C(O)c1cc(NC(=O)c2ccc(Oc3ccc(C(=O)Nc4cc(C(=O)O)cc(C(=O)O)c4)cc3)cc2)cc(C(=O)O)c1 [Compound 50] | IC50 (µM) ± SD, heparanase inhibitory activity [1]: good inhibitory potencies; IC50 [2]: 2.01 ± 0.13 µM |
|  |  | O=C(O)c1ccc(Oc2ccc3c(c2)C(=O)N(c2ccc(Oc4ccc(N5C(=O)c6ccc(Oc7ccc(C(=O)O)cc7)cc6C5=O)cc4)cc2)C3=O)cc1 [Compound 34] | IC50 [2]: 3.15 ± 0.28 µM |
| 14 ± 2% | 95 ± 1% | COc1cc(N=Nc2cccc(S(=O)(=O)O)c2)ccc1NC(=O)Nc1ccc(N=Nc2ccc(O)c(C(=O)O)c2)cc1 [Compound 17] |  |
| 14 ± 6% | 59 ± 5% | Cc1c(NS(=O)(=O)c2cc(C(=O)Nc3ccc(-c4nc5ccccc5[nH]4)cc3)ccc2Cl)c(=O)n(-c2ccccc2)n1C [Compound 28] |  |
|  |  | O=C(O)c1ccccc1N1C(=O)c2ccc(Oc3ccc(Oc4ccc5c(c4)C(=O)N(c4ccccc4C(=O)O)C5=O)cc3)cc2C1=O [Compound 58] | IC50 [2]: < 5 µM and 3.78 µM |
| 20 ± 5% | 51 ± 5% | O=C(O)CCC(=O)Nc1ccc(Oc2ccc(S(=O)(=O)c3ccc(Oc4ccc(NC(=O)CCC(=O)O)cc4)cc3)cc2)cc1 [Compound 56] |  |

| % inhib @2.5 M ± SD (Table S1) | % inhib @25 M ± SD (Table S1) | Structure (SMILES) | other results |
| --- | --- | --- | --- |
| 41 ± 3% | 67 ± 4% | O=C(Nc1c[nH]c(=O)[nH]c1=O)c1ccc2c(c1)C(=O)N(c1ccc(Oc3ccc(N4C(=O)c5ccc(C(=O)Nc6c[nH]c(=O)[nH]c6=O)cc5C4=O)cc3)cc1)C2=O [Compound 45] |  |
|  |  | CC(C)(c1ccc(Oc2ccc3c(c2)C(=O)N(c2ccc(C(=O)O)cc2)C3=O)cc1)c1ccc(Oc2ccc3c(c2)C(=O)N(c2ccc(C(=O)O)cc2)C3=O)cc1 [Compound 49] | IC50 (µM) ± SD, heparanase inhibitory activity [1]: significant inhibitory potencies; IC50 [2]: 2.35 ± 0.23 µM |
|  | 96 ± 3% | O=C(Nc1ccccc1C(=O)O)c1ccc2c(c1)C(=O)N(c1ccc(Oc3ccc(N4C(=O)c5ccc(C(=O)Nc6ccccc6C(=O)O)cc5C4=O)cc3)cc1)C2=O [Compound 23] |  |
| 36 ± 5% | 58 ± 1% | O=C(CSc1nc2ccccc2[nH]1)Nc1ccc(-c2nc3cc(NC(=O)CSc4nc5ccccc5[nH]4)ccc3o2)cc1 [Compound 33] |  |
| 35 ± 1% | 99 ± 6% | O=C(O)c1cc(C(=O)O)cc(N2C(=O)c3ccc(C(=O)c4ccc5c(c4)C(=O)N(c4cc(C(=O)O)cc(C(=O)O)c4)C5=O)cc3C2=O)c1 [Compound 26] |  |
| Not active | 70 ± 6% | O=C(O)c1ccc(Oc2ccc3c(c2)C(=O)N(c2ccc(S(=O)(=O)c4ccc(N5C(=O)c6ccc(Oc7ccc(C(=O)O)cc7)cc6C5=O)cc4)cc2)C3=O)cc1 [Compound 27] |  |
| 30 ± 4% | 43 ± 7% | O=C(O)c1ccc(NC(=O)c2ccc(S(=O)(=O)c3ccc(C(=O)Nc4ccc(C(=O)O)cc4)cc3)cc2)cc1 [Compound 55] |  |
|  |  | O=C(Nc1ccc2c(O)c(N=Nc3ccc(N=Nc4ccc(S(=O)(=O)O)cc4)cc3S(=O)(=O)O)c(S(=O)(=O)O)cc2c1)Nc1ccc2c(O)c(N=Nc3ccc(N=Nc4ccc(S(=O)(=O)O)cc4)cc3S(=O)(=O)O)c(S(=O)(=O)O)cc2c1 [Compound 15] | IC50 [2]: 0.93 ± 0.07 µM |
|  |  | O=C(Nc1ccc(O)cc1C(=O)O)c1ccc(S(=O)(=O)c2ccc(C(=O)Nc3ccc(O)cc3C(=O)O)cc2)cc1 [Compound 53] | IC50 [3]: 5.29 ± 0.84 µM; IC50 (µM) ± SD, heparanase inhibitory activity [1]: good inhibitory potencies |
|  |  | O=C(Nc1cccc(-c2nc3ccccc3s2)c1)c1ccc(Oc2ccc(C(=O)Nc3cccc(-c4nc5ccccc5s4)c3)cc2)cc1 [Compound 38] | IC50 [3]: 5.75 ± 0.05 µM |
|  | Not active | O=C(O)c1ccc2c(c1)C(=O)N(NC(=O)c1ccc(Oc3ccc(C(=O)NN4C(=O)c5ccc(C(=O)O)cc5C4=O)cc3)cc1)C2=O [Compound 25] |  |
|  |  | Nc1ccc2cc(S(=O)(=O)O)cc(O)c2c1N=Nc1ccc(NC(=O)Nc2ccc(N=Nc3c(N)ccc4cc(S(=O)(=O)O)cc(O)c34)c(S(=O)(=O)O)c2)cc1S(=O)(=O)O [Compound 20] | IC50 [2]: 1.76 ± 0.23 µM |
| 53 ± 12% | 65 ± 4% | O=C(O)c1ccc(N2C(=O)c3ccc(Oc4cccc(Oc5ccc6c(c5)C(=O)N(c5ccc(C(=O)O)cc5)C6=O)c4)cc3C2=O)cc1 [Compound 60] |  |
|  |  | O=C(O)c1ccc(Oc2cccc(N3C(=O)c4ccc(Oc5ccc6c(c5)C(=O)N(c5cccc(Oc7ccc(C(=O)O)c(C(=O)O)c7)c5)C6=O)cc4C3=O)c2)cc1C(=O)O [Compound 36] | IC50 [2]: 0.63 ± 0.01 µM |
|  |  | O=C(Nc1cccc(Oc2ccc(S(=O)(=O)c3ccc(Oc4cccc(NC(=O)c5ccc(F)cc5)c4)cc3)cc2)c1)c1ccc(F)cc1 [Compound 46] | IC50 [3]: > 5 µM |
|  |  | O=C(O)/C=C/C(=O)Nc1ccc(Sc2ccc(Oc3ccc(Sc4ccc(NC(=O)/C=C/C(=O)O)cc4)cc3)cc2)cc1 [Compound 35] | IC50 [2]: 0.52 ± 0.02 µM |
| 62 ± 2% | 60 ± 5% | O=C(Nc1ccc(Oc2ccc(NC(=O)c3ccc4c(c3)C(=O)N(c3nccs3)C4=O)cc2)cc1)c1ccc2c(c1)C(=O)N(c1nccs1)C2=O [Compound 44] |  |
|  |  | O=C(Nc1ccccc1C(=O)O)c1ccc2c(c1)C(=O)N(c1ccc(S(=O)(=O)c3ccc(N4C(=O)c5ccc(C(=O)Nc6ccccc6C(=O)O)cc5C4=O)cc3)cc1)C2=O [Compound 24] | IC50 [2]: 1.1 ± 0.13 µM |
| 12 ± 3% | 11 ± 3% | O=C(Nc1ccc2c(O)c(N=Nc3ccccc3)c(S(=O)(=O)O)cc2c1)Nc1ccc2c(O)c(N=Nc3ccccc3)c(S(=O)(=O)O)cc2c1 [Compound 18] |  |

| Structure (SMILES) | % inhib @2.5 M ± SD (Table S1) | % inhib @25 M ± SD (Table S1) | other results |
| --- | --- | --- | --- |
| O=C(Nc1cccc(C(=O)Nc2ccc(S(=O)(=O)O)c3cc(S(=O)(=O)O)cc(S(=O)(=O)O)c23)c1)Nc1cccc(C(=O)Nc2ccc(S(=O)(=O)O)c3cc(S(=O)(=O)O)cc(S(=O)(=O)O)c23)c1 [Compound 9] |  | Not active |  |
| O=C(Nc1cccc(C(=O)Nc2cc(C(=O)Nc3ccc(S(=O)(=O)O)c4cc(S(=O)(=O)O)cc(S(=O)(=O)O)c34)ccc2F)c1)Nc1cccc(C(=O)Nc2cc(C(=O)Nc3ccc(S(=O)(=O)O)c4cc(S(=O)(=O)O)cc(S(=O)(=O)O)c34)ccc2F)c1 [Compound 10] | 39 ± 3% | 100 ± 1% |  |
